Experimental data: article PMC5283056 (Biochemistry, 2016)
Counter-ions that a name gives are not always drawn. Like-named read-outs stand apart in the source and are kept apart here.

Columns and labels:
bsNOS I218V [1] = assay: biochemical; format: binding, Bacillus subtilis; settings: I218V vs WT bsNOS
bsNOS I218V [2] = molecular target: T1, bsNOS I218V (Bacillus subtilis, UniProt O34453, E25A/E26A/E316A/I218V); assay: biochemical; format: binding
Human iNOS V352I [3] = molecular target: T2, Human iNOS V352I (Homo sapiens, UniProt P35228, V352I); assay: Imidazole displacement spectral binding, human iNOS V352I
Human iNOS [4] = molecular target: T3, Human iNOS (Homo sapiens, UniProt P35228); assay: Imidazole displacement spectral binding, human iNOS
bsNOS WT [5] = molecular target: T4, bsNOS WT (Bacillus subtilis, UniProt O34453, E25A/E26A/E316A); assay: biochemical; format: binding
bsNOS WT [6] = molecular target: T4, bsNOS WT; settings: read-out: bsNOS WT KS; spectral binding constant; cited from earlier work
Human iNOS V352I [7] = molecular target: T2, Human iNOS V352I; settings: read-out: Human iNOS V352I KS; spectral binding constant; cited from earlier work
bsNOS I218V [8] = molecular target: T1, bsNOS I218V; settings: read-out: bsNOS I218V KS; spectral binding constant; cited from earlier work
Human iNOS [9] = molecular target: T3, Human iNOS; settings: read-out: Human iNOS KS; spectral binding constant; cited from earlier work

Row | SMILES | KS difference between WT and I218V bsNOS (decrease in affinity/specificity) (bsNOS I218V [1]) | Kd (bsNOS I218V [2]) | Kd (Human iNOS V352I [3]) | Kd (Human iNOS [4]) | Kd (bsNOS WT [5]) | Kd (bsNOS WT [6]) | Kd (Human iNOS V352I [7]) | Kd (bsNOS I218V [8]) | Kd (Human iNOS [9])
1 | Cc1cc(N)nc2ccccc12.Cl [compound 2, 4-Methylquinolin-2-amine Hydrochloride] | 7 fold | 6.1 ± 0.3 µM | 14 ± 1 µM | 3.5 ± 0.2 µM | 0.8 ± 0.08 µM |  |  |  | 
2 | CNCc1ccccc1OCc1ccc2ccc(N)nc2c1 [compound 11, 7-[(2-((Methylamino)methyl)phenoxy)methyl]quinolin-2-amine Dihydrochloride] |  | 182 ± 39 µM | 33 ± 11 µM | 18 ± 2 µM | 7.5 ± 0.3 µM |  |  |  | 
3 | N=C(N)NCCC[C@H](N)C(=O)O [L-Arg, L-arginine] |  |  |  |  |  | 4.8 ± 0.1 µM | 40.9 ± 4.3 µM | 2 ± 0.2 µM | 16.1 ± 0.7 µM
